A word on the inhibition: it is the relative decrease from the control value, in per cent.

This note sets out measurements from PubChem BioAssay AID504520 (The Scripps Research Institute Molecular Screening Center, 2011).

Calls of active or inactive are those of the source. How the calls were made is not given here.

Test in all cases: competitive ABPP of LYPLA1 versus anti-target hydrolases – fluorescence, gel-based ABPP, mouse proteome, late-stage follow-up (AID 504520);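 further: soluble proteome from BW5147 murine T cells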
Conditions in all cases: FP-rhodamine fluorescence, stronger effect = higher value

The subject of assay [1] is ABHD11.
Assay [2] concerns the target Platelet-activating factor acetylhydrolase 2, cytoplasmic (Mus musculus) (UniProt Q8VDG7).
Assay [3] deals with LYPLA1.
Assay [4] relates to LYPLA2.
The subject of assay [5] is ESD.

Platelet-activating factor acetylhydrolase 2, cytoplasmic (Mus musculus), sequence (Q8VDG7 whole entry, looked up): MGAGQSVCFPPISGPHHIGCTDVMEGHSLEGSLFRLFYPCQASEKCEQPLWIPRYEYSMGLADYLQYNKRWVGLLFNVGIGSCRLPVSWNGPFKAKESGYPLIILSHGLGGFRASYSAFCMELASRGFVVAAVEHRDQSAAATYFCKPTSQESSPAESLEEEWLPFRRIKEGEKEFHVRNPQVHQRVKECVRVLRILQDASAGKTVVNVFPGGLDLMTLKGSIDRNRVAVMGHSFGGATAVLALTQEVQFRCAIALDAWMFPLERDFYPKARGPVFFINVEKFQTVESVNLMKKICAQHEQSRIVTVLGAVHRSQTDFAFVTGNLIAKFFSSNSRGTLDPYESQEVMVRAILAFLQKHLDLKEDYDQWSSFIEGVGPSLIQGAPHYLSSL

Consider `O=C(N(c1ccccc1)c1ccccc1)n1ncc(-c2ccc(Oc3ccccc3)cc2)n1`, for which the inhibition in assay [1] (at 0.75 µM) was 0% (inactive); in assay [1] (inhibition, at 0.03 µM), 0%; in assay [1] (inhibition, at 0.15 µM) it was 0%; in assay [2] (PAFAH2, at 0.75 µM) it was 75% (inactive); in assay [2] (PAFAH2, inhibition, at 0.03 µM) it was 0%; in assay [2] (PAFAH2, inhibition, at 0.15 µM), 0%. Moreover, the inhibition in assay [3] (at 0.75 µM) is 0% (inactive); in assay [3] (inhibition, at 0.03 µM), 0%; in assay [3] (inhibition, at 0.15 µM), 0%; in assay [4] (at 0.75 µM), 0% (inactive); in assay [4] (inhibition, at 0.03 µM), 0%; in assay [4] (inhibition, at 0.15 µM), 0%. The inhibition was 0% (inactive) in assay [5] (at 0.75 µM); 0% in assay [5] (inhibition, at 0.03 µM); 0% in assay [5] (inhibition, at 0.15 µM).

On to `O=C(N(c1ccccc1)c1cccc(Br)c1)n1ncc(C(O)(c2ccccc2)c2ccccc2)n1`, for which the inhibition in assay [1] (at 0.75 µM) is 100%; in assay [1] (inhibition, at 0.03 µM), 0%; in assay [1] (inhibition, at 0.15 µM) it was 100%; in assay [2] (PAFAH2, at 0.75 µM), 0% (inactive); in assay [2] (PAFAH2, inhibition, at 0.03 µM), 0%; in assay [2] (PAFAH2, inhibition, at 0.15 µM) it was 0%. Also, the inhibition in assay [3] (at 0.75 µM) was 0% (inactive); in assay [3] (inhibition, at 0.03 µM), 0%; in assay [3] (inhibition, at 0.15 µM), 0%; in assay [4] (at 0.75 µM), 0% (inactive); in assay [4] (inhibition, at 0.03 µM), 0%; in assay [4] (inhibition, at 0.15 µM), 0%. The inhibition was 0% (inactive) in assay [5] (at 0.75 µM); 0% in assay [5] (inhibition, at 0.03 µM); 0% in assay [5] (inhibition, at 0.15 µM).

With `COCC1CCCCN1C(=O)n1ncc(C(O)(c2ccccc2)c2ccccc2)n1` (stereo not given), the inhibition was 100% in assay [1] (at 0.75 µM); 100% in assay [1] (inhibition, at 0.03 µM); 100% in assay [1] (inhibition, at 0.15 µM); 0% (inactive) in assay [2] (PAFAH2, at 0.75 µM); 0% in assay [2] (PAFAH2, inhibition, at 0.03 µM); 0% in assay [2] (PAFAH2, inhibition, at 0.15 µM). For the same compound, the inhibition in assay [3] (at 0.75 µM) was 0% (inactive); in assay [3] (inhibition, at 0.03 µM), 0%; in assay [3] (inhibition, at 0.15 µM), 0%; in assay [4] (at 0.75 µM), 0% (inactive); in assay [4] (inhibition, at 0.03 µM) it was 0%; in assay [4] (inhibition, at 0.15 µM) it was 0%. Moreover, the inhibition in assay [5] (at 0.75 µM) is 0% (inactive); in assay [5] (inhibition, at 0.03 µM), 0%; in assay [5] (inhibition, at 0.15 µM), 0%.

Turning to `CCC1CCCCN1C(=O)n1ncc(C(O)(c2ccccc2)c2ccccc2)n1` (stereo not given), the inhibition in assay [1] (at 0.75 µM) is 100%; in assay [1] (inhibition, at 0.03 µM), 100%; in assay [1] (inhibition, at 0.15 µM) it was 100%; in assay [2] (PAFAH2, at 0.75 µM), 0% (inactive); in assay [2] (PAFAH2, inhibition, at 0.03 µM), 0%; in assay [2] (PAFAH2, inhibition, at 0.15 µM), 0%. Moreover, the inhibition is 0% (inactive) in assay [3] (at 0.75 µM); 0% in assay [3] (inhibition, at 0.03 µM); 0% in assay [3] (inhibition, at 0.15 µM); 0% (inactive) in assay [4] (at 0.75 µM); 0% in assay [4] (inhibition, at 0.03 µM); 0% in assay [4] (inhibition, at 0.15 µM). For the same compound, the inhibition in assay [5] (at 0.75 µM) was 0% (inactive); in assay [5] (inhibition, at 0.03 µM) it was 0%; in assay [5] (inhibition, at 0.15 µM), 0%.

Take `O=C(N(c1ccccc1)c1ccccc1)n1ncc(-c2ccc(-c3ccccc3)cc2)n1`: the inhibition was 0% (inactive) in assay [1] (at 0.75 µM); 0% in assay [1] (inhibition, at 0.03 µM); 0% in assay [1] (inhibition, at 0.15 µM); 75% (inactive) in assay [2] (PAFAH2, at 0.75 µM); 0% in assay [2] (PAFAH2, inhibition, at 0.03 µM); 0% in assay [2] (PAFAH2, inhibition, at 0.15 µM). Moreover, the inhibition in assay [3] (at 0.75 µM) is 0% (inactive); in assay [3] (inhibition, at 0.03 µM), 0%; in assay [3] (inhibition, at 0.15 µM) it was 0%; in assay [4] (at 0.75 µM), 0% (inactive); in assay [4] (inhibition, at 0.03 µM), 0%; in assay [4] (inhibition, at 0.15 µM), 0%. The inhibition is 0% (inactive) in assay [5] (at 0.75 µM); 0% in assay [5] (inhibition, at 0.03 µM); 0% in assay [5] (inhibition, at 0.15 µM).

Turning to `CN(C(=O)n1ncc(C(O)(c2ccccc2)c2ccccc2)n1)c1ccccc1`, the inhibition in assay [1] (at 0.75 µM) is 75% (inactive); in assay [1] (inhibition, at 0.03 µM), 0%; in assay [1] (inhibition, at 0.15 µM) it was 0%; in assay [2] (PAFAH2, at 0.75 µM), 25% (inactive); in assay [2] (PAFAH2, inhibition, at 0.03 µM), 0%; in assay [2] (PAFAH2, inhibition, at 0.15 µM) it was 0%. The inhibition in assay [3] (at 0.75 µM) is 0% (inactive); in assay [3] (inhibition, at 0.03 µM) it was 0%; in assay [3] (inhibition, at 0.15 µM) it was 0%; in assay [4] (at 0.75 µM), 0% (inactive); in assay [4] (inhibition, at 0.03 µM), 0%; in assay [4] (inhibition, at 0.15 µM) it was 0%. Also, the inhibition in assay [5] (at 0.75 µM) is 0% (inactive); in assay [5] (inhibition, at 0.03 µM) it was 0%; in assay [5] (inhibition, at 0.15 µM), 0%.

As for `O=C(N(c1ccccc1)c1ccc(Br)cc1)n1ncc(C(O)(c2ccccc2)c2ccccc2)n1`, the inhibition in assay [1] (at 0.75 µM) was 100%; in assay [1] (inhibition, at 0.03 µM) it was 0%; in assay [1] (inhibition, at 0.15 µM), 100%; in assay [2] (PAFAH2, at 0.75 µM) it was 0% (inactive); in assay [2] (PAFAH2, inhibition, at 0.03 µM), 0%; in assay [2] (PAFAH2, inhibition, at 0.15 µM) it was 0%. Besides, the inhibition in assay [3] (at 0.75 µM) was 0% (inactive); in assay [3] (inhibition, at 0.03 µM) it was 0%; in assay [3] (inhibition, at 0.15 µM), 0%; in assay [4] (at 0.75 µM), 0% (inactive); in assay [4] (inhibition, at 0.03 µM), 0%; in assay [4] (inhibition, at 0.15 µM), 0%. Moreover, the inhibition in assay [5] (at 0.75 µM) is 0% (inactive); in assay [5] (inhibition, at 0.03 µM), 0%; in assay [5] (inhibition, at 0.15 µM) it was 0%.
